≈ marks a conversion by molar mass, not a printed value. Inconclusive results are not listed. Calls of active or inactive are those of the source. How the calls were made is not given here.
System: Zebrafish larvae lipid metabolism, fluorescent lipid gallbladder/intestine
Experiment: larval zebrafish lipid processing modulation – whole organism, confirmation, fluorescent lipid, gallbladder/intestine, dose response (AID 691)

Row | Compound | MIC
1 | COc1ccc2c(c1)c(C(=O)CN1CCOCC1)c(C)n2C | > 100 µM (inactive)
2 | CCNC(=O)c1cc2c(=O)n3cccc(C)c3nc2n(CCc2ccccc2)c1=N | > 100 µM (inactive)
3 | CC(=O)Nc1nnc(S(N)(=O)=O)s1 | > 100 µM (inactive)
4 | COC(=O)c1sccc1NC(=O)c1ccco1 | > 100 µM (inactive)
5 | COc1ccc(C2CC(C(F)(F)F)n3ncc(C(=O)Nc4cccc(O)c4)c3N2)cc1OC (stereo not given) | > 100 µM (inactive)
6 | N#CCSc1nc2c(c(=O)n1Cc1ccco1)C1(CCCC1)Cc1ccccc1-2 | 25 µM (≈ 10.1 µg/mL)
7 | COc1ccc(OC)c(Nc2nc(-c3cccs3)cs2)c1 | 56.2 µM (≈ 17.9 µg/mL)
8 | CCN(CC)C(=O)c1sc2nc(-c3cccs3)cc(-c3cccs3)c2c1N | 12.5 µM (≈ 5.17 µg/mL)
9 | OCCN1CCN(CCCN2c3ccccc3Sc3ccc(C(F)(F)F)cc32)CC1 | > 100 µM (inactive)
10 | Cc1c(N=Cc2c(O)n(CCc3ccc(F)cc3)c(=O)[nH]c2=O)c(=O)n(-c2ccccc2)n1C | > 100 µM (inactive)
11 | Cc1csc(NC(=O)Nc2cccc(Cl)c2)n1 | > 100 µM (inactive)
12 | N#Cc1c(NCCN)nc(NCc2ccccc2)c2c1CCN(Cc1ccccc1)C2 | > 100 µM (inactive)
13 | O=C1c2ccccc2-c2onc3ccc(NCc4ccco4)c1c23 | 3.91 µM (≈ 1.24 µg/mL)
14 | Cc1c(N=Cc2c(O)n(C3CCCCC3)c(=O)[nH]c2=O)c(=O)n(-c2ccccc2)n1C | > 100 µM (inactive)
15 | CC1(C)Cc2c(C#N)c(NCc3ccco3)nc(-c3ccco3)c2CO1 | > 100 µM (inactive)
16 | CCOC(=O)CCc1c(C)c(C#N)c2[nH]c3ccccc3n2c1=O | > 100 µM (inactive)
17 | COC(=O)C1=C(N)Oc2cc(C)oc(=O)c2C1c1ccncc1 (stereo not given) | > 100 µM (inactive)
18 | CCCCOc1ccccc1C(=O)NCCCC(=O)O | > 100 µM (inactive)
19 | COCCCN1C(=O)C(O)=C(C(C)=O)C1c1ccccn1 (stereo not given) | > 100 µM (inactive)
20 | CS(=O)(=O)Nc1ccc([N+](=O)[O-])cc1Oc1ccccc1 | > 100 µM (inactive)
21 | CC(C)N=c1cc2n(-c3ccc(Cl)cc3)c3ccccc3nc-2cc1Nc1ccc(Cl)cc1 | 6.25 µM (≈ 2.96 µg/mL)
22 | Cc1ccc2[nH]c3c(c2c1)CN(C(=O)CN1CCCc2ccccc21)CC3 | > 100 µM (inactive)
23 | N#CC1=C(SCC(=O)c2ccc(Cl)cc2)NC2=C(C(=O)CCC2)C1c1ccco1 (stereo not given) | > 100 µM (inactive)
24 | CC1Oc2ccccc2N(CC(=O)NCc2cccs2)C1=O (stereo not given) | > 100 µM (inactive)
25 | Cc1nnc(NC(=O)C2CCCO2)s1 (stereo not given) | > 100 µM (inactive)

Row | Compound | MIC
26 | Clc1ccc(OCc2nnc(SCCN3CCCCC3)n2Cc2ccco2)cc1 | 75 µM (≈ 32.5 µg/mL)
27 | c1ccc(-c2nnc3sc(Cc4cccs4)nn23)cc1 | 18.8 µM (≈ 5.59 µg/mL)
28 | CN(C)[C@@H]1C(=O)C(C(N)=O)=C(O)[C@@]2(O)C(=O)C3=C(O)c4c(O)ccc(Cl)c4[C@@H](O)[C@H]3C[C@@H]12 | > 100 µM (inactive)
29 | Cc1cccc2c1NC(C)CC2C (stereo not given) | > 100 µM (inactive)
30 | Cc1ccc(CNC(=O)c2cc3c(=O)n4ccccc4nc3n(Cc3ccco3)c2=N)cc1 | 62.5 µM (≈ 27.5 µg/mL)
31 | COc1cccc(-c2nnc3sc(-c4ccco4)nn23)c1 | > 100 µM (inactive)
32 | CCOC(=O)CSc1nnc2n(Cc3ccccc3)c(=O)c3c4c(sc3n12)CCC4 | > 100 µM (inactive)
33 | CCN(CC)c1ccc(C2Nc3cccc4cccc(c34)N2)c(O)c1 | > 100 µM (inactive)
34 | COC(=O)c1cc(Br)c(=O)n(CCc2ccc(F)cc2)c1 | > 100 µM (inactive)
35 | CNc1oc(-c2ccccc2Cl)nc1C#N | > 100 µM (inactive)
36 | CCN1CC2=C(OC(N)=C(C#N)C2c2ccccc2)/C(=C\c2ccccc2)C1 (stereo not given) | > 100 µM (inactive)
37 | Cc1ccc2nc(C3CCN(CC(=O)N4CCCCCC4)CC3)[nH]c2c1 | > 100 µM (inactive)
38 | CCOC(=O)CSc1nc(N)c(C(=O)Nc2ccc(N(C)C)cc2)s1 | 25 µM (≈ 9.51 µg/mL)
39 | COc1ccccc1-c1nnc2sc(C3CCCCC3)nn12 | > 100 µM (inactive)
40 | CC1(c2cnc(Nc3ccccc3)s2)CCC(=O)O1 (stereo not given) | > 100 µM (inactive)
41 | N#Cc1ccc(CSc2nnc(-c3ccccn3)n2-c2ccccc2)cc1 | > 100 µM (inactive)
42 | COC(=O)c1ccc(Cn2nnc3c(sc4nc(N5CCOCC5)c5c(c43)CCCC5)c2=O)o1 | > 100 µM (inactive)
43 | CNc1ccccc1-c1nc2ccccc2n(C)c1=O | 15.6 µM (≈ 4.15 µg/mL)
44 | Cn1c(C(=O)OC(C(=O)NC2CCCC2)c2cccnc2)cc2sccc21 (stereo not given) | > 100 µM (inactive)
45 | CCCC1CC(=O)OC1(C)C(=O)CSc1n[nH]c(-c2ccccc2)n1 (stereo not given) | > 100 µM (inactive)
46 | C=CCn1c(N)c(C(=O)Nc2ccccc2)c2nc3ccccc3nc21 | > 100 µM (inactive)
47 | c1coc(-c2nnc3sc(-c4cccs4)nn23)c1 | 9.37 µM (≈ 2.57 µg/mL)
48 | CCOC(=O)C1CCCN(c2nc3ccccc3nc2C(C#N)C(=O)OCCOC)C1 (stereo not given) | > 100 µM (inactive)
49 | COc1ccc(C)cc1-n1nnnc1SC/C(O)=C(\C#N)c1nc2ccccc2[nH]1 | > 100 µM (inactive)
50 | c1ccc(CN2CCN(c3ncnc4c3[nH]c3ccccc34)CC2)cc1 | 31.3 µM (≈ 10.7 µg/mL)

— PubChem BioAssay AID691 (PCMD, 2007)
